Here are results for 14 compounds from US12391679B2, “Benzamide-substituted bicyclic imidazo- and pyrazolo-fused -pyridine, -pyrimide, and -pyridazine compounds for treatment of inflammatory diseases” (ONCO3R Therapeutics BV, priority 2019, dated 2025).

pIC50: −log10 of the molar value. Where only a bound is given, the exact number is not on record here.

One experiment deals with T1, SIK3 (Homo sapiens, UniProt Q9Y2K2).
T1 construct: purchased SignalChem S12-11G-100
Put plainly: 33P radioactive kinase assay, SIK3. Conditions: 33P radioactive assay; AMARA 7 μM; 15 μM ATP; 80 min; average IC50. Format: biochemical. The procedure, abridged:
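SIK1, SIK2 or SIK3 phosphorylation of AMARA peptide with [33P]-γ-ATP plus unlabeled ATP. 10-point 1/5 dilution series, 1% DMSO final; reactions stopped with phosphoric acid, filter-harvested and scintillation-counted. Percentage inhibition and average IC50 derived from dose-response curves.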

Experiment [1] has as its system LPS triggered IL-10 secretion in monocyte-derived macrophages. Put plainly: MdM assay: LPS-triggered IL-10 (ELISA). Format: cell-based. To be noted: Macrophage; human MdM; LPS 200 ng/mL; supernatant after 2 h; maximal fold change vs LPS only, median of two or more assays; read-out: IL-10 FCmax median. On the procedure:
SIK inhibition inhibits TNFα and increases IL-10 release in LPS triggered monocyte-derived macrophages (MdM) and dendritic cells (MdDCs) (Clark et al. 2012; Sundberg et al. 2014; Ozanne et al. 2015). This assay evaluates illustrative compounds of the invention for their inhibition of LPS-induced TNFα and LPS triggered IL-10 secretion in monocyte-derived macrophages.
PBMCs are isolated from human blood samples (buffycoats). The buffy coat is aseptically transferred into a 50 mL Falcon tube, and diluted 1/2 in PBS. Falcon tubes are filled with 20 mL Lymphoprep™, on top of which 25 mL of the buffy coat is carefully added, tubes are centrifuged for 35 min at 400 g in temperature controlled centrifuge, without brake, at 25° C. PBMCs are aspirated from the white interface layer between sample and Lymphoprep™. PBMCs are washed five times in PBS. Cells are resuspended in RPMI 1640 complete medium supplemented with 10% FBS, 1% P/S, and cell density is determined using a hematologic analyzer (Sysmex XS-500i).
PBMCs are centrifuged at 300×g for 10 min and resuspended at a density of 1.0*10^7 cells/80 μL Miltenyi buffer (PBS, pH 7.4, 1% FBS, 2 mM EDTA).
Starting from this point of the protocol all steps are performed on ice. 20 μL of CD14+ micro-beads are added per 1.0*10^7 cells, the tube is mixed and incubated for 15 min in the fridge at 4° C. Cell suspension volume is adjusted to total volume of 100 mL using Miltenyi buffer, mixed gently and subsequently centrifuged for 10 min at 300×g. Supernatant is discarded and cell pellet is resuspended in 12 mL of Miltenyi buffer.
Four LS columns are placed in the MACS Separator (magnet) from Miltenyi Biotec, and are prewet by rinsing with 3 mL of MACS buffer per column. Three mL of cell suspension is added onto the column (max 1*10^8 of labelled cells/column), and columns are subsequently washed 3 times with 3 mL of Miltenyi buffer.
The columns are removed from the magnets, and 5 mL of Miltenyi buffer are added to the column to flush out the CD14+ fraction by pushing the plunger into the column. The flushed fractions are collected in a fresh 50 mL Falcon and volume is adjusted to 30 mL using Miltenyi buffer, cells are centrifuged for 10 min at 300×g. The obtained cell pellet is resuspended in 10 mL RPMI w/o FBS, and cell density is determined using a hematologic analyser (Sysmex XS-500i). 100 000 cells are seeded per well of a 96-well plate for differentiation to MdM in RPMI 1640 medium supplemented with 10% FBS, 1% P/S and 100 ng/mL rhM-CSF. On day 5 the medium is refreshed with 100 μL RPMI 1640 medium supplemented with 10% FBS, 1% P/S and 100 ng/mL rhM-CSF.
On day 10, MdMs are triggered and compound is added.
A compound dilution plate is made in 100% DMSO by 3-fold dilution of 10 mM stock solution. An intermediate dilution plate (10× final concentration) is made by diluting the compound dilution plate 50-fold in RPMI medium.
Medium is carefully removed from cell plates using multichannel pipette, and replaced by 80 μL fresh medium. 10 μL of the 10× final concentration compound is added to the cells and incubated for 1 hour at 37° C. before addition of trigger. No trigger conditions/trigger conditions are spiked with equal final DMSO concentrations of 0.2% DMSO. 10 μL of 10×LPS (final conc. 200 ng/mL) solution are added to all wells except for the ‘no trigger wells’ where 10 μL medium is added. Supernatant is collected after 2 h (IL-10 determination) and after 20 h (TNFα determination) of LPS triggering. […]
On the technique in general: In an ELISA, binding on a coated surface is turned into a signal by an enzyme label.

T1 sequence (Q9Y2K2 59-365 limits assumed): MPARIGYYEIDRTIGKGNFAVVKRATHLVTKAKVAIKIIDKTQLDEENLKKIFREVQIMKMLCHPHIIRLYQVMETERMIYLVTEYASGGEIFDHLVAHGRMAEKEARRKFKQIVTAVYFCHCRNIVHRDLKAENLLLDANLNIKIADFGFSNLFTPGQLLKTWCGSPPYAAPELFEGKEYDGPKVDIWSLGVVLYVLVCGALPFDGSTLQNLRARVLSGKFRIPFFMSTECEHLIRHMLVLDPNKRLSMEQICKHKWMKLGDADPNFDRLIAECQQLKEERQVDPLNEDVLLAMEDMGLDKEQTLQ

As usually defined, the pIC50 is the IC50 on a negative log10 scale, so that one unit is a factor of ten. On to `COc1cc(-c2cnc3cc(C(C)(C)C#N)ccn23)cc(OC(F)F)c1C(=O)NC1CC1` [Cpd 19, 4-[7-(1-cyano-1-methyl-ethyl)imidazo[1,2-a]pyridin-3-yl]-N-cyclopropyl-2-(difluoromethoxy)-6-methoxy-benzamide], for which the pIC50 at SIK3 was 8.00 to 11.00. The maximal fold induction in experiment [1] was < 1.5.
Turning to `COc1cc(-c2cnn3cc(C(C)(C)O)ccc23)cc(OC(F)F)c1C(=O)N[C@@H]1C[C@@H]1F` [Cpd 227, 2-(difluoromethoxy)-N-[(1R,2S)-2-fluorocyclopropyl]-4-[6-(1-hydroxy-1-methyl-ethyl)pyrazolo[1,5-a]pyridin-3-yl]-6-methoxy-benzamide], the maximal fold induction in experiment [1] lay in the range of 1.5 to 4.5.
With `CCC(C)(C#N)c1ccn2c(-c3cc(OC)c(C(=O)NC4CC4)c(OC(F)F)c3)cnc2c1` (stereo not drawn) [Cpd 27, 4-[7-(1-cyano-1-methyl-propyl)imidazo[1,2-a]pyridin-3-yl]-N-cyclopropyl-2-(difluoromethoxy)-6-methoxy-benzamide], the pIC50 at SIK3 is 7.00 to 8.00.
On to `COc1cc(-c2cnn3cc(C(C)(C)N)ccc23)cc(OC(F)F)c1C(=O)N[C@@H]1C[C@@H]1F` [Cpd 256, 4-[6-(1-amino-1-methyl-ethyl)pyrazolo[1,5-a]pyridin-3-yl]-2-(difluoromethoxy)-N-[(1R,2S)-2-fluorocyclopropyl]-6-methoxy-benzamide], for which the maximal fold induction in experiment [1] was 1.5 to 4.5.
With `COc1cc(-c2cnn3cc(C4(N)CCC4)ccc23)cc(OC(F)F)c1C(=O)N[C@@H]1C[C@@H]1F` [Cpd 261, 4-[6-(1-aminocyclobutyl)pyrazolo[1,5-a]pyridin-3-yl]-2-(difluoromethoxy)-N-[(1R,2S)-2-fluorocyclopropyl]-6-methoxy-benzamide], in experiment [1], the maximal fold induction was < 1.5.
The same measure, in the same setting: the figure for `COc1cc(-c2cnn3cc(C(C)(C)C#N)cnc23)cc(OC(F)F)c1C(=O)N[C@@H]1C[C@@H]1F` [Cpd 231, 4-[6-(1-cyano-1-methyl-ethyl)pyrazolo[1,5-a]pyrimidin-3-yl]-2-(difluoromethoxy)-N-[(1R,2S)-2-fluorocyclopropyl]-6-methoxy-benzamide] is 1.5 to 4.5; for `COc1cc(-c2cnn3cc(C4(C(N)=O)CCC4)ccc23)cc(OC(F)F)c1C(=O)N[C@@H]1C[C@@H]1F` [Cpd 254, 4-[6-(1-carbamoylcyclobutyl)pyrazolo[1,5-a]pyridin-3-yl]-2-(difluoromethoxy)-N-[(1R,2S)-2-fluorocyclopropyl]-6-methoxy-benzamide] it is < 1.5.
With `COc1cc(-c2cnn3cc(C(C)(C)C#N)ccc23)cc(OC)c1C(=O)N[C@@H]1C[C@@H]1F` [Cpd 245, 4-[6-(1-cyano-1-methyl-ethyl)pyrazolo[1,5-a]pyridin-3-yl]-N-[(1R,2S)-2-fluorocyclopropyl]-2,6-dimethoxy-benzamide], the maximal fold induction in experiment [1] is < 1.5.
Regarding `COc1cc(-c2cnc3cc(C(C)(C)C#N)ccn23)cc(OC)c1C(=O)NC1CC1` [Cpd 28, 4-[7-(1-cyano-1-methyl-ethyl)imidazo[1,2-a]pyridin-3-yl]-N-cyclopropyl-2,6-dimethoxy-benzamide], at SIK3, the pIC50 was 7.00 to 8.00.
Regarding `COc1cc(-c2cnn3cc(C4(C#N)CCOCC4)ccc23)cc(OC(F)F)c1C(=O)N[C@@H]1C[C@@H]1F` [Cpd 243, 4-[6-(4-cyanotetrahydropyran-4-yl)pyrazolo[1,5-a]pyridin-3-yl]-2-(difluoromethoxy)-N-[(1R,2S)-2-fluorocyclopropyl]-6-methoxy-benzamide], the maximal fold induction in experiment [1] was < 1.5.
On the same count and under the same terms, the figure for `COc1cc(-c2cnn3cc(C(C)(C)CO)ccc23)cc(OC(F)F)c1C(=O)N[C@@H]1C[C@@H]1F` [Cpd 242, 2-(difluoromethoxy)-N-[(1R,2S)-2-fluorocyclopropyl]-4-[6-(2-hydroxy-1,1-dimethyl-ethyl)pyrazolo[1,5-a]pyridin-3-yl]-6-methoxy-benzamide] is < 1.5.
For the compound `COc1cc(-c2cnc3cc(C(C)(C)C#N)cnn23)cc(OC(F)F)c1C(=O)N[C@@H]1C[C@@H]1F` [Cpd 228, 4-[7-(1-cyano-1-methyl-ethyl)imidazo[1,2-b]pyridazin-3-yl]-2-(difluoromethoxy)-N-[(1R,2S)-2-fluorocyclopropyl]-6-methoxy-benzamide], in experiment [1], the maximal fold induction is < 1.5.
With `COc1cc(-c2cnc3cc(C4(C#N)CC4)ccn23)cc(OC(F)F)c1C(=O)NC1CC1` [Cpd 33, 4-[7-(1-cyanocyclopropyl)imidazo[1,2-a]pyridin-3-yl]-N-cyclopropyl-2-(difluoromethoxy)-6-methoxy-benzamide], on SIK3, the pIC50 was 8.00 to 11.00.
As to `COc1cc(-c2cnn3cc(C(C)(C)C#N)ccc23)cc(OC(F)F)c1C(=O)NC1CC1` [Cpd 208, 4-[6-(1-cyano-1-methyl-ethyl)pyrazolo[1,5-a]pyridin-3-yl]-N-cyclopropyl-2-(difluoromethoxy)-6-methoxy-benzamide], the maximal fold induction in experiment [1] is < 1.5.
